The subject of one assay is HeLa cells. The assay is described as follows: Induction of Hsc70, Hsp70A and Hsp70B′ proteins under different induction conditions, Western blotting. It is filed as cell-based, human. The following applies: Azetidine 5 μM, 5 hours, CdCl2 100 μM, 2 hours, ZnCl2 250 μM; for Induction of Hsc70, relative protein level: 20 ug total cell lysate. (In western blotting, separated proteins are transferred to a membrane and probed.)

In the next assay the test system is Jurkat cells. Described as above. The note with it: Azetidine 5 μM, 5 hours, CdCl2 100 μM, 2 hours, ZnCl2 250 μM. It is filed as cell-based, human.
The subject of a further assay is A431 cells. The assay is described as above. It is filed as cell-based, human. The following applies: Azetidine 5 μM, 5 hours, CdCl2 100 μM, 2 hours, ZnCl2 250 μM.
Assay [1] concerns HeLa, Jurkat and A-431 human cell lines. The assay is described as follows: Relative induction of Hsc70, Hsp70A and Hsp70B′ proteins. It is filed as cell-based.
Another assay deals with hsp70B′ mRNA. The note with it: Leung et al., Biochem. J. 267:125-132, 1990; cited from earlier work.
Another assay concerns immunizing peptide. The assay is described as follows: Anti-peptide titre ELISA with peptide on the solid phase. It is filed as binding, human. The note with it: rabbit host. Here is the method:
Methods: Hsp70B′ Antibodies were produced as follows. Hsp70B′ antibodies were produced in rabbits, goats and mice with either synthetic peptides or recombinant Hsp70B′ protein as immunogen. Eight peptides were chosen from the human Hsp70B′ amino acid sequence. One of the Hsp70B′ peptides, the NT peptide […](C) (SEQ ID NO:9) corresponded to an N-terminal fragment. […] Sera were collected at various time points and the antibody response to the immunizing protein or peptide was evaluated in an indirect enzyme immunoassay (EIA). Titres were established as the dilution factor at which the absorbance in the test sample was equal to 0.2 optical density units. […]
Anti-peptide titre was determined as follows. […] The anti-peptide titres in the rabbits, goats, and mice were determined in an ELISA with peptide on the solid phase. […]
Biotinylated secondary antibodies (100 μl) were added to each microtitre plate test well and incubated for four hours at room temperature. […] The plates were read at 414 λ, 20 minutes following the addition of substrate. Titres were established as the reciprocal dilution factor at which the test sample was equal to 0.2 absorbance units.
In general terms: In an ELISA, binding on a coated surface is turned into a signal by an enzyme label.

Assay [2] concerns the target T1, Hsp70B′ (Homo sapiens, UniProt P17066).
T1 construct: E. coli BL21 (DE3) cells harboring the expression plasmid for full length human Hsp70B′; made in house; host or cells: E. coli BL21 (DE3) / BLR (DE3), pET24a
The assay is described as follows: Indirect EIA, relative titre index. It is filed as binding.

Another assay concerns the target T2, recombinant bovine Hsc70 (Bos taurus, UniProt P19120).
T2 construct: purchased Stressgen Biotechnologies SPP-751
In words: Indirect EIA, relative titre index. It is filed as binding. The note with it: Hsc70 Protein; relative to irrelevant antibody.

The target of the next assay is T3, recombinant human Hsp70A (Homo sapiens, UniProt P0DMV8).
T3 construct: purchased Stressgen Biotechnologies SPP-755
In words: Indirect EIA, relative titre index. It is filed as binding. The note with it: Hsp70A Protein; relative to irrelevant antibody.

For assay [3], the target named is T4, recombinant hamster Grp78 (Mesocricetus auratus, UniProt P07823).
T4 construct: purchased Stressgen Biotechnologies SPP-765
The assay is described as follows: Indirect EIA, relative titre index. The note with it: Grp78 Protein; relative to irrelevant antibody. It is filed as binding.

The target in another assay is T5, unconjugated CB2 peptide (Homo sapiens, UniProt P17066).
T5 construct: The CB peptide was also resynthesized on a separate occasion and designated CB2; purchased Research Genetics, Inc; host or cells: chemical synthesis
The assay is described as follows: Indirect EIA, relative titre index. It is filed as binding. The note with it: relative to irrelevant antibody.

The next assay has as its target T6, unconjugated ECB peptide (Homo sapiens, UniProt P17066).
T6 construct: purchased Research Genetics, Inc; host or cells: chemical synthesis
The assay is described as follows: Indirect EIA, relative titre index. It is filed as binding. The note with it: relative to irrelevant antibody.

The target of the next assay is T7, unconjugated TCB peptide (Homo sapiens, UniProt P17066).
T7 construct: purchased Research Genetics, Inc; host or cells: chemical synthesis
The assay is described as follows: Indirect EIA, relative titre index. It is filed as binding. The note with it: relative to irrelevant antibody.

A further assay deals with T8, unconjugated CE peptide (Homo sapiens, UniProt P17066).
T8 construct: purchased Research Genetics, Inc; host or cells: chemical synthesis
In words: Indirect EIA, relative titre index. It is filed as binding. The following applies: relative to irrelevant antibody.

The target of assay [4] is T1, Hsp70B′. In words: Western blotting of HSP70 family members. It is filed as binding. The note with it: SDS-denatured recombinant protein; band intensity 0-3.
The target of assay [5] is T9, 68 kDa (Hsp70B′) protein from HeLa cell lysates (Homo sapiens, UniProt P17066).
T9 construct: endogenous in cells; host or cells: HeLa (ATCC CCL-2), unstressed and heat stressed
The assay is described as follows: Immunoblotting of unstressed and heat stressed human cell lysates. It is filed as binding. Details: key to Reactivity with 68 kDa (Hsp70B′) protein, HeLa: 0 = no signal; 3 = a very strong signal.

The target of the next assay is E. coli DnaK (Escherichia coli, UniProt P0A6Y8).
Assay [6] has as its target recombinant M. tuberculosis Hsp71 (Mycobacterium tuberculosis, UniProt P9WMJ9).

The values below come from US7326574B2, “Compositions and methods for detecting stress-inducible proteins” (Stressgen Biotechnologies Corporation, priority 1999, dated 2008).

Some results are limits rather than exact numbers.

T9 sequence (P17066 whole entry): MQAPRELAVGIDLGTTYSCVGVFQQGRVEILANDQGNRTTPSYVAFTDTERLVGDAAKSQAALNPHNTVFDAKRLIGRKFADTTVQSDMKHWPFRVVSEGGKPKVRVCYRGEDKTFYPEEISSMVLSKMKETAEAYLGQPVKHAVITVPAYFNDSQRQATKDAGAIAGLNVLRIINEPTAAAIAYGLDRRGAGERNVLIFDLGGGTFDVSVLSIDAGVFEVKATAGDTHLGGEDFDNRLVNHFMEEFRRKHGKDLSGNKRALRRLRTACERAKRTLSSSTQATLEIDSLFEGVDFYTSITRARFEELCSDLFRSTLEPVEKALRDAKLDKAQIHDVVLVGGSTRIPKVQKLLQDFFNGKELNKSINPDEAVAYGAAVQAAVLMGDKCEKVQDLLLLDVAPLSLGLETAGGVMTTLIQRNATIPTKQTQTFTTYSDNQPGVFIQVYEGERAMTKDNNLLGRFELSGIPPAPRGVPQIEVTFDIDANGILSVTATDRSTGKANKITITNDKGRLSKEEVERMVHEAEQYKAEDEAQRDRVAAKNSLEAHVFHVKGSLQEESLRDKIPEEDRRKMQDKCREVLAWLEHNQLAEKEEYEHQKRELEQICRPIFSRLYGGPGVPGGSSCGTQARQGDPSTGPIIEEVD
T1 sequence (P17066 whole entry): as above
Sequence of recombinant M. tuberculosis Hsp71 (P9WMJ9 whole entry): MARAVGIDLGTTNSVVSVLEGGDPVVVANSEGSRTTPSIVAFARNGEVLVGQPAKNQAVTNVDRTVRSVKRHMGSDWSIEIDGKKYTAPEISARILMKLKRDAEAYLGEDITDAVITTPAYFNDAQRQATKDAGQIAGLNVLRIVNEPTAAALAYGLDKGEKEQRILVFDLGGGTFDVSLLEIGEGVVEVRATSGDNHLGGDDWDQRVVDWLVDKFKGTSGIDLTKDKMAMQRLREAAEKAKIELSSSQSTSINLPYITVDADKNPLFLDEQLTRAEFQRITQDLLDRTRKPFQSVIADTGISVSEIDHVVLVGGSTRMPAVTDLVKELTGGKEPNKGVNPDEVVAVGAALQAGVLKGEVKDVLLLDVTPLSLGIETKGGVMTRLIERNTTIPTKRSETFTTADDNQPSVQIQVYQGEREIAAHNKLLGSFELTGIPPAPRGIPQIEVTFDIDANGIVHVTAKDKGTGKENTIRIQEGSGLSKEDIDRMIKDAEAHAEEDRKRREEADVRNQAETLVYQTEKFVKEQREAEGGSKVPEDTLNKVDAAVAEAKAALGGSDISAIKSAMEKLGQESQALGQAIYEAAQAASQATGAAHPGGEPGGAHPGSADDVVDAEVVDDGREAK
Sequence of E. coli DnaK (P0A6Y8 whole entry): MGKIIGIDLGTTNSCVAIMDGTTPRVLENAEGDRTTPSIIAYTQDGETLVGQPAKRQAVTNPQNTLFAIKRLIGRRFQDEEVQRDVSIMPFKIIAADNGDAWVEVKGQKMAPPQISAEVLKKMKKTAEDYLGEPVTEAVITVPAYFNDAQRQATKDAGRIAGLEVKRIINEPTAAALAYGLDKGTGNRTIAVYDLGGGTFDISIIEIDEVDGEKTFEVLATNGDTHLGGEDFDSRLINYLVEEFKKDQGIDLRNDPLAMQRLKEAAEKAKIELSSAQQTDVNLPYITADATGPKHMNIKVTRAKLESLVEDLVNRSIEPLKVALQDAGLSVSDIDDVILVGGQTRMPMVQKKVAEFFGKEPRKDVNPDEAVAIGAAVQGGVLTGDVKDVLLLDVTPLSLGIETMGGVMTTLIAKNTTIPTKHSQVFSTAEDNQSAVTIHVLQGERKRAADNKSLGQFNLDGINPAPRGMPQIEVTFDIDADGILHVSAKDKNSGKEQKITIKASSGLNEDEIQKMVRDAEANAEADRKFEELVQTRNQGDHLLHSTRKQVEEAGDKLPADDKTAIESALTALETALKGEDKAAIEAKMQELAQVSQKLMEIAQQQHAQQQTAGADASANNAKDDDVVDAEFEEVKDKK
T2 sequence (P19120 whole entry): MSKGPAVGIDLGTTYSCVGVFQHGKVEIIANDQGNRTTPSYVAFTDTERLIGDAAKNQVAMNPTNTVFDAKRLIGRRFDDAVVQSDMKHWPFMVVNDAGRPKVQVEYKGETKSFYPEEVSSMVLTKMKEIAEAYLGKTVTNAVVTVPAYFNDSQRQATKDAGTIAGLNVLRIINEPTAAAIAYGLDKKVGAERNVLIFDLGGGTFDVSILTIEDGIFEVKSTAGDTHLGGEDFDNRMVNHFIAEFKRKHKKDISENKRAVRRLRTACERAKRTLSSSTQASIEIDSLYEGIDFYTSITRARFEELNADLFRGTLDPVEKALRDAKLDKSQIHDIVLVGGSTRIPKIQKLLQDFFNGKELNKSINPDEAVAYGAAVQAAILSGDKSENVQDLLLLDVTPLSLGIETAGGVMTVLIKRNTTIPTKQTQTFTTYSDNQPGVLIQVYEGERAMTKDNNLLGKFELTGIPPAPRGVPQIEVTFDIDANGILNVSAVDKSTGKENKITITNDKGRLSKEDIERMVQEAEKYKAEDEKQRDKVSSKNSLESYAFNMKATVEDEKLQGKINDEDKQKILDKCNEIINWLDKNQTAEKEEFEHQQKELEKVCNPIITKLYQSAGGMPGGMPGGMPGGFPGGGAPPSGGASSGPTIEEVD
T3 sequence (P0DMV8 whole entry): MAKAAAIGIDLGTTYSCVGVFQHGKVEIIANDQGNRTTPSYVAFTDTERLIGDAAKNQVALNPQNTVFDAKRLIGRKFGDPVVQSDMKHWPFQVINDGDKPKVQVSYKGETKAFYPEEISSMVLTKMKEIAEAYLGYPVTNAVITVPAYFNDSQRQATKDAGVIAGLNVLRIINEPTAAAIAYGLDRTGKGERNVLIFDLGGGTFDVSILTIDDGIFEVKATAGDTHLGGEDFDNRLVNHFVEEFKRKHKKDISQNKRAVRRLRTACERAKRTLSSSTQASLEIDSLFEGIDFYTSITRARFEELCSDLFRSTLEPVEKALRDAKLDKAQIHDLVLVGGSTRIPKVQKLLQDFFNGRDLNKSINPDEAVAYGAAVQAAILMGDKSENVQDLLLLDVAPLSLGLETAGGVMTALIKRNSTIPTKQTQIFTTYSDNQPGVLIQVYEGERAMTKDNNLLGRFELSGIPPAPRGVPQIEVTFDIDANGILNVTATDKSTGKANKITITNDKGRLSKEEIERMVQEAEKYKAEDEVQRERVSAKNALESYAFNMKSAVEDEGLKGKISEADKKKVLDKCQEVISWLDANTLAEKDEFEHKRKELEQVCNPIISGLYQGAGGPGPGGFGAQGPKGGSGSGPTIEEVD
T4 sequence (P07823 19-654): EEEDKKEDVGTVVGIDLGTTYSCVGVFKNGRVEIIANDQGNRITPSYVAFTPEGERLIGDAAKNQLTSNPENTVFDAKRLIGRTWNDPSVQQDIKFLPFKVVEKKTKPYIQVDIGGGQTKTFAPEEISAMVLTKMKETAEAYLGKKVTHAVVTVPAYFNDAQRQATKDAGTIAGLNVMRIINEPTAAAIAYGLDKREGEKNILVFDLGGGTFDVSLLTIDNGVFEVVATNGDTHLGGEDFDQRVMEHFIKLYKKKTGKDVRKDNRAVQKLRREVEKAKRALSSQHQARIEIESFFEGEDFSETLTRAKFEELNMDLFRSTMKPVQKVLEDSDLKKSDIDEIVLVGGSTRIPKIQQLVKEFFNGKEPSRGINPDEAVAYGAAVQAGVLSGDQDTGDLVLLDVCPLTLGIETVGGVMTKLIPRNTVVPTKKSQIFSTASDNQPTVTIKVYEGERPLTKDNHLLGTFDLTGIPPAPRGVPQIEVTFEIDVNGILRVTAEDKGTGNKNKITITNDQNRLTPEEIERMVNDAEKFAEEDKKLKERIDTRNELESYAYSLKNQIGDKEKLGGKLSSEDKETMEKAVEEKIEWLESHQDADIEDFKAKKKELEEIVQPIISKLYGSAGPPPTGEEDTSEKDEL

On to `[Cl][Cd][Cl]` [CdCl2], for which, in the assay with HeLa cells, the “Induction of Hsp70A, relative protein level” value is “+3”; the “Induction of Hsp70A/B′, relative protein level” value is given as “+3”; the “Induction of Hsp70B′, relative protein level” value is on record as “+2”; the “Induction of Hsc70, relative protein level” value was “+3”. Besides, in the assay on Jurkat cells, the “Induction of Hsc70, relative protein level” value is given as “+3”; the “Induction of Hsp70A, relative protein level” value is “+2”; the “Induction of Hsp70A/B′, relative protein level” value is listed as “+2”; the “Induction of Hsp70B′, relative protein level” value is “+3”. Besides, in the assay with A431 cells, the “Induction of Hsc70, relative protein level” value was “+3”; the “Induction of Hsp70A, relative protein level” value is listed as “+2”; the “Induction of Hsp70A/B′, relative protein level” value is “+3”; the “Induction of Hsp70B′, relative protein level” value was “+1”. Further, in [1], the “Expression of the constitutive Hsc70 protein” value is recorded as “not affected” and the “Induction of Hsp70B′ protein” value is reported as “induced”. Also, the “hsp70B′ mRNA after treatment” value in the assay on hsp70B′ mRNA is “only trace amounts”.

Regarding `[Cl-].[Cl-].[Zn+2]` [ZnCl2], in the assay with HeLa cells, the “Induction of Hsp70A, relative protein level” value was “+3”; the “Induction of Hsp70A/B′, relative protein level” value was “+3”; the “Induction of Hsp70B′, relative protein level” value is reported as “+1”; the “Induction of Hsc70, relative protein level” value is “+3”. In the assay with Jurkat cells, the “Induction of Hsc70, relative protein level” value is “+3”; the “Induction of Hsp70A, relative protein level” value is “+2”; the “Induction of Hsp70A/B′, relative protein level” value is on record as “+1”; the “Induction of Hsp70B′, relative protein level” value is listed as “+1”. For the same molecule, in the assay with A431 cells, the “Induction of Hsc70, relative protein level” value was “+3”; the “Induction of Hsp70A, relative protein level” value is recorded as “+2”; the “Induction of Hsp70A/B′, relative protein level” value is on record as “+3”; the “Induction of Hsp70B′, relative protein level” value is listed as “+2”. In assay [1], the “Expression of the constitutive Hsc70 protein” value is “not affected” and the “Induction of Hsp70B′ protein” value is “induced”.

For the molecule ECB (VPGGSSCGTQARQGDPSTGPI), the “# Animals Responding” value with immunizing peptide was 3/3. Also, in the assay on immunizing peptide (individual animals, reciprocal dilution giving 0.2 absorbance units), the “Antisera Titer (EIA)” value was more than 204800. Moreover, the “Relative Titre Index” value was “≧41” with Hsp70B′ [2] (Hsp70B′ Protein, relative to irrelevant antibody, rabbit antibody); 1 in the assay with recombinant bovine Hsc70; 1 with recombinant human Hsp70A; 1 in assay [3]; “≧86” in the assay with unconjugated CB2 peptide; “≧129” with unconjugated ECB peptide. Further, the “Relative Titre Index” value in the assay with unconjugated TCB peptide is “*1”; with unconjugated CE peptide it was 1; with E. coli DnaK it was 1; in assay [6] it was 1. Also, the “Preferential reactivity with Hsp70B′ over other HSP70 protein homologs” value with Hsp70B′ [2] (based on absolute relative titre index values) came to 41 fold. Moreover, in the assay with Hsp70B′ [4], the “Hsp70B′ Reactivity Rec. protein” value stood at 3. Also, the “Reactivity with 68 kDa (Hsp70B′) protein, HeLa HS” value in [5] (heat stressed HeLa lysate, 10-20 μg) is on record as 3. In addition, the “Antisera that specifically detected Hsp70B′ in immunoblots (fraction of rabbits)” value in assay [5] (sera from three individual rabbits) is “⅓”. In addition, in assay [5] (unstressed HeLa lysate, 10-20 μg), the “Reactivity with 68 kDa (Hsp70B′) protein, HeLa” value turned out to be 0.
